According to ChEMBL document CHEMBL1201862, “PubChem BioAssay data set” (2004):
One block for each molecule: values may come before it. Active and inactive are the calls of the source.

Key:
[1] = target: T1, Polyadenylate-binding protein 1 (Homo sapiens, UniProt P11940); experiment: PABP1 MLLE–PAM2 binding inhibitor potency, dose response, biochemical, fluorescence polarization, FITC-PAM2 peptide (AID 602259); assay type: functional; settings: read-out: IC50_Mean
[2] = target: T1, Polyadenylate-binding protein 1; experiment: PABP1 MLLE–PAM2 interaction inhibitors, dose response, miRNA deadenylation inhibitor project, biochemical, fluorescence polarization, Cy5-PAM2 peptide, secondary (AID 602260); assay type: functional; settings: read-out: IC50_Mean
Genome polyprotein = Genome polyprotein (dengue virus type 2, UniProt P29990); experiment: Dengue-2 NS5 methyltransferase inhibitors, primary screen, biochemical, confirmation dose response (AID 588689); assay type: functional
Chain of Genome polyprotein (P29990 2492-3391 limits assumed): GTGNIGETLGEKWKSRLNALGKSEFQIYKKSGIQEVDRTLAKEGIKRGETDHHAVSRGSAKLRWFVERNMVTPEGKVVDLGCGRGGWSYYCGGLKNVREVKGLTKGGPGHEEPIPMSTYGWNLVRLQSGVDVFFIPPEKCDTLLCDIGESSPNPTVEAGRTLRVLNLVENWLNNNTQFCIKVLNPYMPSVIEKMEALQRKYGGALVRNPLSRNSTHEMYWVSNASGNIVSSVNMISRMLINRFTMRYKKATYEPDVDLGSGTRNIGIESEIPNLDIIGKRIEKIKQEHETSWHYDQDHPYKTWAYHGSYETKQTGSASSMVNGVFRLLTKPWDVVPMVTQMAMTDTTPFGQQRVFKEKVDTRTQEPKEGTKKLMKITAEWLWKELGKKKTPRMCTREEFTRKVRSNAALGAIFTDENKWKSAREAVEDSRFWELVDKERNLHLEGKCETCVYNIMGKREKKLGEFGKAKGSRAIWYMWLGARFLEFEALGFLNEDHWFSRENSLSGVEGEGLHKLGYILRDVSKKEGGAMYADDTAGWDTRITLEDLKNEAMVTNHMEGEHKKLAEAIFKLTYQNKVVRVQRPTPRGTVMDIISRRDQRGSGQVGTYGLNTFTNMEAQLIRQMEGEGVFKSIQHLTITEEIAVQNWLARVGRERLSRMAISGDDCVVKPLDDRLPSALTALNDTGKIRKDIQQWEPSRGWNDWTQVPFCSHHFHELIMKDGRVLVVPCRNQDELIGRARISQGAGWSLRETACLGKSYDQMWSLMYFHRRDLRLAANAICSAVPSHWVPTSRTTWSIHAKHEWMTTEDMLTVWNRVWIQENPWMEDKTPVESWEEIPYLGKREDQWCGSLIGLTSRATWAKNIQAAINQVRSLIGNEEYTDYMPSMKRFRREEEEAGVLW

Cytochrome P450 3A4 = Cytochrome P450 3A4 (Homo sapiens, UniProt P08684); settings: Potency;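 note: confirmatory qHTS run detecting inhibitors and substrates of CYP3A4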
Chain of Cytochrome P450 3A4 (P08684 whole entry): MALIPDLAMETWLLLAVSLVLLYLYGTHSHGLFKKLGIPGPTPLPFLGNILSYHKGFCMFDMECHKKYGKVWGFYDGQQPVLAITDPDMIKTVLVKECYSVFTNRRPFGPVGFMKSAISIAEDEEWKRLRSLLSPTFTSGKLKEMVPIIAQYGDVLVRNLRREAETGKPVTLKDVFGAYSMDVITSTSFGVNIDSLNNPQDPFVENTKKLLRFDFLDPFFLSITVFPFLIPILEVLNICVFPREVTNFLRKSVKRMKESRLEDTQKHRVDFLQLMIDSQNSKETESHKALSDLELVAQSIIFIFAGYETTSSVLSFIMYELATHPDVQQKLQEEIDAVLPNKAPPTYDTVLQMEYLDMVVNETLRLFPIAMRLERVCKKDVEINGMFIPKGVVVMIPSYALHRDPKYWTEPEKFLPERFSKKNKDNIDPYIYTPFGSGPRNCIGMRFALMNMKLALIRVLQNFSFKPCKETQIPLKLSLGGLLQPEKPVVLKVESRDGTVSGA

[3] = target: T2, Short transient receptor potential channel 4 (Mus musculus, UniProt Q9QUQ5); experiment: mouse TRPC4 channel inhibitors, dose response, cell-based, HEK293 TRPC4/mu-opioid, Fluo-4 calcium (AID 434942); assay type: functional;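 note: potency of inhibitors blocking the TRPC4 calcium response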
T2 sequence (Q9QUQ5 whole entry): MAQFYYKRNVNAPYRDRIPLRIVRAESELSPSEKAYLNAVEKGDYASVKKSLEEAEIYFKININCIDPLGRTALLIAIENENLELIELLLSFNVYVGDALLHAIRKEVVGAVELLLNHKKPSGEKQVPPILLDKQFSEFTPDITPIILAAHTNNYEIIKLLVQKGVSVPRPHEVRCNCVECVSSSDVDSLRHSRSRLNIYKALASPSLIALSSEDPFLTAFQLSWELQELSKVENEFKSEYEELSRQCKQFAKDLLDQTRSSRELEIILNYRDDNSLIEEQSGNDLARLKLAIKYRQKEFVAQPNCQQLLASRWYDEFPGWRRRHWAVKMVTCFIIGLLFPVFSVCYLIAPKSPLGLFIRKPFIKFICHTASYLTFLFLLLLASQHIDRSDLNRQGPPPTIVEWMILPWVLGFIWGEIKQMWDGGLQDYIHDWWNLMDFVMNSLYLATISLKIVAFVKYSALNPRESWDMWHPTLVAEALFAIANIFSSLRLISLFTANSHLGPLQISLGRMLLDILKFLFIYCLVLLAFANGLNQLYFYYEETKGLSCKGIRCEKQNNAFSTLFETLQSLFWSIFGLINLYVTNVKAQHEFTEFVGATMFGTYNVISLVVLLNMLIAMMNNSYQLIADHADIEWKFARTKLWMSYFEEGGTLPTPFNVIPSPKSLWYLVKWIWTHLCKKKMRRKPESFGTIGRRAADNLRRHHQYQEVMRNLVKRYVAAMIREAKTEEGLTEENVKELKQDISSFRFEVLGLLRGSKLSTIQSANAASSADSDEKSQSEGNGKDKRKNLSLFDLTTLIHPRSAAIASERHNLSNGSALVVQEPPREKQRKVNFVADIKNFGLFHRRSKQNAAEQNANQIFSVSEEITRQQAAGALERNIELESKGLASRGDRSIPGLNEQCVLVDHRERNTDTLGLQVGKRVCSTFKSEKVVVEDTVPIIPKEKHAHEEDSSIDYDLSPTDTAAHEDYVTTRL

[4] = NIH:OVCAR-3 ovarian cancer cell cytotoxicity, dose response, PAX8 inhibitor project, plate reader, dry powder samples (AID 743044); assay type: functional, cell-based
[5] = cytotoxicity in OVCAR8 ovarian cancer cells, dose response, PAX8 project, cell-based, plate reader, dry powder samples (AID 743197); assay type: functional; settings: OVCAR-8
Paired box protein Pax-8 = Paired box protein Pax-8 (Homo sapiens, UniProt Q06710); experiment: inhibitors of PAX8-driven TPO luciferase reporter, dose response, RMG-I cells, cherry-pick (AID 687027); assay type: functional, cell-based;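 note: luciferase reporter driven by Pax8 target thyroperoxidase promoter measured by SteadyGlo luminescence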
Chain of Paired box protein Pax-8 (Q06710 whole entry): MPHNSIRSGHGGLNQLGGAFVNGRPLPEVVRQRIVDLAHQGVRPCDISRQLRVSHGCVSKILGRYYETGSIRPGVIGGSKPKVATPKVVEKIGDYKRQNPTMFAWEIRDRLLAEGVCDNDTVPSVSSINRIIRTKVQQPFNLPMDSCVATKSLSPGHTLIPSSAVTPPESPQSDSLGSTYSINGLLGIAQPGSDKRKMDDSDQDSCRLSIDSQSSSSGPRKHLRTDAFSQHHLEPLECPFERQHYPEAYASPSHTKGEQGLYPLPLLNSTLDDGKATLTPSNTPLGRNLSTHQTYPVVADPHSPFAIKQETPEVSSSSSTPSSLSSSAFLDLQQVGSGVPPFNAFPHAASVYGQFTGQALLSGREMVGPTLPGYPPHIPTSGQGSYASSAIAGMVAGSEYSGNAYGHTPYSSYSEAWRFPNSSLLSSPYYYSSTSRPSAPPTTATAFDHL

[6] = intracellular Trypanosoma cruzi inhibitors in host cells – cell-based, plate reader, cherry-pick samples, set 3, dose response (AID 651818); assay type: functional;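 note: compounds incubated with infected cells for about four days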
[7] = inhibitors of clade B AD8 Env fusion, dose response, cell-based, cherry-pick (AID 652062); assay type: functional;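 note: luciferase signal from cell-cell fusion driven by HIV-1 clade B AD8 Env; potency is for inhibitors of fusion seen as a drop in luminescence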
[8] = inhibitors of HIV Env-driven cell fusion, dose response, cherry-pick (AID 652057); assay type: functional, cell-based

T1 sequence (P11940 whole entry): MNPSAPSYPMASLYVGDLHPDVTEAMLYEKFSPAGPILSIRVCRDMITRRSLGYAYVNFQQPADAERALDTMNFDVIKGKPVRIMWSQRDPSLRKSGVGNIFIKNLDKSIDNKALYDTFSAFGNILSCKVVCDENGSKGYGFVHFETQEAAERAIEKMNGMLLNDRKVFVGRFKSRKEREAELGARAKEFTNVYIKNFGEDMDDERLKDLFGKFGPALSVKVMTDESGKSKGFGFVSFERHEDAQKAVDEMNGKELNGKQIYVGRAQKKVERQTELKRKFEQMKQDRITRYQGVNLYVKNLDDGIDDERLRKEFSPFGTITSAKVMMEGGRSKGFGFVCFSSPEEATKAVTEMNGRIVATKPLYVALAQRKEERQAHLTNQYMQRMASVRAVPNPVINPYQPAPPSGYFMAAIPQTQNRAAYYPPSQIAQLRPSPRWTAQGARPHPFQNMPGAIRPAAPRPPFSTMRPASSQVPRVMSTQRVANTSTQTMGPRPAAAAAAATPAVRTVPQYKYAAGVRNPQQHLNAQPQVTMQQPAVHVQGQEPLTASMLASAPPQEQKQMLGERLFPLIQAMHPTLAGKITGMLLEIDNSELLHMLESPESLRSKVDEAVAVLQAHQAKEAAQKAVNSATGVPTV

- IC50 [1]: 57.4 µM (inactive)
- IC50 [2]: > 66 µM (inactive)
- IC50 (Genome polyprotein): 90.8 µM (active)
SMILES: N#Cc1c(N)sc(=S)c2c1CCCC2

- AC50 (Cytochrome P450 3A4): 0.501 µM (inconclusive)
SMILES: COc1cc2cc(Oc3ccc4ccc(=O)oc4c3)c(=O)oc2cc1O [DAPHNORETIN]

- IC50 (Genome polyprotein): 38.1 µM (active)
SMILES: COc1cccc(/C=C2/C(=O)NN(c3ccc(F)cc3)C2=O)c1

- EC50 [3]: 4.22 µM (active)
SMILES: CCOc1ccc(Cl)cc1/C=N/O

SMILES: Cc1ccc([N+](=O)[O-])cc1N
- AC50 (Cytochrome P450 3A4): 31.6 µM (inconclusive)

SMILES: COc1ccc2c3c([nH]c2c1)[C@H](CO)N(C(=O)Nc1cccc(F)c1)CC31CCN(S(=O)(=O)c2cccc(C)c2)CC1
- AC50 [4]: 42.4 µM (active)
- AC50 [5]: > 70 µM (inactive)
- AC50 (Paired box protein Pax-8): 5.2 µM (active)

- EC50 [3]: 4.22 µM (active)
SMILES: CCC1C=C(c2ccccc2)C=CN=C1N(CC)CC (centres undefined)

- EC50 [3]: 1.88 µM (active)
SMILES: CC(C)c1nc(CNC(=O)CC2C(=O)NCCN2Cc2ccc(F)cc2Cl)cs1 (centres undefined)

SMILES: C[C@@H]1CN([C@@H](C)CO)C(=O)c2cc(NS(=O)(=O)c3ccc(Cl)cc3)ccc2O[C@H]1CN(C)Cc1ccc(Cl)c(Cl)c1
- AC50 [6]: 3.37 µM (active)

SMILES: C[C@H](CO)N1C[C@H](C)[C@H](CN(C)C(=O)C2CC2)OCc2ccccc2-c2c(n(C)c3ccccc23)C1=O
- AC50 [7]: 0.836 µM (active)
- AC50 [8]: 0.426 µM (active)

- AC50 (Cytochrome P450 3A4): 12.6 µM (inconclusive)
SMILES: CC(=O)N1[C@H](C)C=C[C@]1(Cc1ccccc1)C(=O)NCc1ccccn1

SMILES: C[C@@H]1CN([C@H](C)CO)C(=O)c2cccc(NC(=O)Nc3ccc(C(F)(F)F)cc3)c2O[C@@H]1CN(C)Cc1ccc2c(c1)OCO2
- AC50 [6]: 2.54 µM (active)

SMILES: C[C@H](CO)N1C[C@H](C)[C@H](CN(C)Cc2ccc(C(F)(F)F)cc2)OCCCC[C@H](C)Oc2ccc(NC(=O)NC3CCCCC3)cc2C1=O
- AC50 [4]: 41.6 µM (active)
- AC50 [5]: 41.7 µM (active)
- AC50 (Paired box protein Pax-8): 10.1 µM (active)

SMILES: C[C@H]1CN([C@@H](C)CO)C(=O)Cc2cc(NC(=O)Nc3ccccc3)ccc2O[C@H]1CN(C)Cc1ccc(C(=O)Nc2ccccc2N)cc1
- AC50 [6]: 2.93 µM (active)

SMILES: C[C@@H]1CN([C@H](C)CO)C(=O)c2cc(NC(=O)Nc3ccc(C(F)(F)F)cc3)ccc2O[C@@H](C)CCCCO[C@H]1CN(C)S(=O)(=O)c1ccccc1
- AC50 [4]: 31.8 µM (active)
- AC50 (Paired box protein Pax-8): 2.23 µM (active)

- EC50 [3]: 0.531 µM (active)
SMILES: COc1cccc(NC(=O)CCC(=O)N2CC(C)Oc3ccc(C)cc32)c1 (centres undefined)
